This assay can be described thus: Activation of human alpha-9/rat alpha-10 nACHR expressed in Xenopus oocytes assessed as increase of acetylcholine-induced current. Format: cell-based. The settings on record: Oocyte.

For the compound `CC(=O)OCC[N+](C)(C)C` [ACETYLCHOLINE], the concentration giving a half-maximal response (EC50) (usually the concentration giving half of the maximal effect) is 50 µM.

The record behind these values is ChEMBL document CHEMBL1833824, “Effects of cyclization on stability, structure, and activity of α-conotoxin RgIA at the α9α10 nicotinic acetylcholine receptor and GABA(B) receptor” (J Med Chem, 2011).
